Data reported in ChEMBL document CHEMBL1926576, “Fragment based lead discovery of small molecule inhibitors for the EPHA4 receptor tyrosine kinase” (Eur J Med Chem, 2012).

Assays:
[1] = target: Serine/threonine-protein kinase MARK2 (Homo sapiens) (UniProt Q7KZI7); assay: Inhibition of MARK2 assessed as residual activity at 10 uM using [33P-ATP] by radiometric filter binding assay
[2] = target: Serine/threonine-protein kinase 26 (Homo sapiens) (UniProt Q9P289); assay: Inhibition of MST4 assessed as residual activity at 10 uM using [33P-ATP] by radiometric filter binding assay
Chain of Serine/threonine-protein kinase 26 (Homo sapiens) (Q9P289 2-416 limits assumed): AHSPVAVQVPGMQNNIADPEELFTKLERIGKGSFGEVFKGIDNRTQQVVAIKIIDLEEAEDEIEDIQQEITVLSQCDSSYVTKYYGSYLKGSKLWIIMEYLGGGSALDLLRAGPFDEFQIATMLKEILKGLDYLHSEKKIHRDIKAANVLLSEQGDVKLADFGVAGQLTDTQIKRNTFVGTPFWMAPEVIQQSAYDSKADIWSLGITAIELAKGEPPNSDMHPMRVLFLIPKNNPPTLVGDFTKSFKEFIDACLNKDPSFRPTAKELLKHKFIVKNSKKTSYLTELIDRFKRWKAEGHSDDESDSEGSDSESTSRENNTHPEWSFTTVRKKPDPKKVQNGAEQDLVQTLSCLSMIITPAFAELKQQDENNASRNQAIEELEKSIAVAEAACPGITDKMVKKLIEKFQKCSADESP

[3] = target: Ephrin type-B receptor 2 (Homo sapiens) (UniProt P29323); assay: Inhibition of EPHB2 assessed as residual activity at 10 uM using [33P-ATP] by radiometric filter binding assay
[4] = target: Angiopoietin-1 receptor (Homo sapiens) (UniProt Q02763); assay: Inhibition of TIE2 assessed as residual activity at 10 uM using [33P-ATP] by radiometric filter binding assay
[5] = target: Serine/threonine-protein kinase TAO1 (Homo sapiens) (UniProt Q7L7X3); assay: Inhibition of TAO1 assessed as residual activity at 10 uM using [33P-ATP] by radiometric filter binding assay
[6] = target: Protein kinase C alpha type (Homo sapiens) (UniProt P17252); assay: Inhibition of PKCalpha assessed as residual activity at 10 uM using [33P-ATP] by radiometric filter binding assay
[7] = target: Mitogen-activated protein kinase kinase kinase 1 (Homo sapiens) (UniProt Q13233); assay: Inhibition of MEKK1 assessed as residual activity at 10 uM using [33P-ATP] by radiometric filter binding assay
[8] = target: Mitogen-activated protein kinase 1 (Homo sapiens) (UniProt P28482); assay: Inhibition of ERK2 assessed as residual activity at 10 uM using [33P-ATP] by radiometric filter binding assay
Chain of Mitogen-activated protein kinase 1 (Homo sapiens) (P28482 whole entry): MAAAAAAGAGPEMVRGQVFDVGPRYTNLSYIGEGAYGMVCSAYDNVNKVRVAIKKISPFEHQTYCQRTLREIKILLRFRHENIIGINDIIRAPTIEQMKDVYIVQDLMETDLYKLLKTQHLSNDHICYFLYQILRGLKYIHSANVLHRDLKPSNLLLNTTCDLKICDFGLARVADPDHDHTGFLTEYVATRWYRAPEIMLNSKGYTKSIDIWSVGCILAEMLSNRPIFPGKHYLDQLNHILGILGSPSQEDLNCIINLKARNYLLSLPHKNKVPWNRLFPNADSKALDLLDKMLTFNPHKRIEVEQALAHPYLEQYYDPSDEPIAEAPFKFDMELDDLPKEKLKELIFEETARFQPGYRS

[9] = target: Ribosomal protein S6 kinase alpha-5 (Homo sapiens) (UniProt O75582); assay: Inhibition of MSK1 assessed as residual activity at 10 uM using [33P-ATP] by radiometric filter binding assay
Chain of Ribosomal protein S6 kinase alpha-5 (Homo sapiens) (O75582 whole entry, looked up): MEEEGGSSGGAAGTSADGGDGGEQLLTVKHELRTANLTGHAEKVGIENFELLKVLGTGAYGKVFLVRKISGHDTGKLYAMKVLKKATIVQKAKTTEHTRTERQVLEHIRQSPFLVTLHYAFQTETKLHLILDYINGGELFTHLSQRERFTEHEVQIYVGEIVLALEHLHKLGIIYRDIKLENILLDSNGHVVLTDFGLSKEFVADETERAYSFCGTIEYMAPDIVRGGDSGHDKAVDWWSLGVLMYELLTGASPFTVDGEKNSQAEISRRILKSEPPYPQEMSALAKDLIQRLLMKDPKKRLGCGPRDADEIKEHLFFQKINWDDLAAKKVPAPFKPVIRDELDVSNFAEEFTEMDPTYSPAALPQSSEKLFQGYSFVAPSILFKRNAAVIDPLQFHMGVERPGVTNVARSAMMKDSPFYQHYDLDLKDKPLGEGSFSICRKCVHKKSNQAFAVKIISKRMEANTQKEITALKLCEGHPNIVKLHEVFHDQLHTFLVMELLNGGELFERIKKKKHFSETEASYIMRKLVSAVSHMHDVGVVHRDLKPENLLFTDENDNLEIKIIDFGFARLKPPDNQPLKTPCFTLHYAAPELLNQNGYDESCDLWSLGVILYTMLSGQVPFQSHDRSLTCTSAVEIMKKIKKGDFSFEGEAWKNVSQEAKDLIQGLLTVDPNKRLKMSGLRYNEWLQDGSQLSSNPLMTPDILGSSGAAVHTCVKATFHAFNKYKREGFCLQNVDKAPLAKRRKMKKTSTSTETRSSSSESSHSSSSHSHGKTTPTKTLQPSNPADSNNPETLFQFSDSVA

[10] = target: Receptor tyrosine-protein kinase erbB-4 (Homo sapiens) (UniProt Q15303); assay: Inhibition of HER4 assessed as residual activity at 10 uM using [33P-ATP] by radiometric filter binding assay
[11] = target: Interleukin-1 receptor-associated kinase 4 (Homo sapiens) (UniProt Q9NWZ3); assay: Inhibition of IRAK4 assessed as residual activity at 10 uM using [33P-ATP] by radiometric filter binding assay
Chain of Interleukin-1 receptor-associated kinase 4 (Homo sapiens) (Q9NWZ3 whole entry): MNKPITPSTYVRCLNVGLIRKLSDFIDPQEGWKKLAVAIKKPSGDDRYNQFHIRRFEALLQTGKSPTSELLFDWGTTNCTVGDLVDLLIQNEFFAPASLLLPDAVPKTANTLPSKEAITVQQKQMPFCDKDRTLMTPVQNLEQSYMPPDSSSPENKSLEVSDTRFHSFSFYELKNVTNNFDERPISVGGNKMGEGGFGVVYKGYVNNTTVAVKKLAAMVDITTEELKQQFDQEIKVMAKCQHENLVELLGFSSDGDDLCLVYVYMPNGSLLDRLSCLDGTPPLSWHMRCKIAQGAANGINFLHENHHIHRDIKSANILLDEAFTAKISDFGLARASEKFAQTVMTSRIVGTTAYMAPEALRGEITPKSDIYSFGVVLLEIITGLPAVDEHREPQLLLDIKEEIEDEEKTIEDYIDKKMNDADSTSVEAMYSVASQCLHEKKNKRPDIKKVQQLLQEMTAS

[12] = target: Serine/threonine-protein kinase Nek6 (Homo sapiens) (UniProt Q9HC98); assay: Inhibition of NEK6 assessed as residual activity at 10 uM using [33P-ATP] by radiometric filter binding assay
[13] = target: Eukaryotic translation initiation factor 2-alpha kinase 3 (Homo sapiens) (UniProt Q9NZJ5); assay: Inhibition of EIF2AK3 assessed as residual activity at 10 uM using [33P-ATP] by radiometric filter binding assay
Chain of Eukaryotic translation initiation factor 2-alpha kinase 3 (Homo sapiens) (Q9NZJ5 whole entry): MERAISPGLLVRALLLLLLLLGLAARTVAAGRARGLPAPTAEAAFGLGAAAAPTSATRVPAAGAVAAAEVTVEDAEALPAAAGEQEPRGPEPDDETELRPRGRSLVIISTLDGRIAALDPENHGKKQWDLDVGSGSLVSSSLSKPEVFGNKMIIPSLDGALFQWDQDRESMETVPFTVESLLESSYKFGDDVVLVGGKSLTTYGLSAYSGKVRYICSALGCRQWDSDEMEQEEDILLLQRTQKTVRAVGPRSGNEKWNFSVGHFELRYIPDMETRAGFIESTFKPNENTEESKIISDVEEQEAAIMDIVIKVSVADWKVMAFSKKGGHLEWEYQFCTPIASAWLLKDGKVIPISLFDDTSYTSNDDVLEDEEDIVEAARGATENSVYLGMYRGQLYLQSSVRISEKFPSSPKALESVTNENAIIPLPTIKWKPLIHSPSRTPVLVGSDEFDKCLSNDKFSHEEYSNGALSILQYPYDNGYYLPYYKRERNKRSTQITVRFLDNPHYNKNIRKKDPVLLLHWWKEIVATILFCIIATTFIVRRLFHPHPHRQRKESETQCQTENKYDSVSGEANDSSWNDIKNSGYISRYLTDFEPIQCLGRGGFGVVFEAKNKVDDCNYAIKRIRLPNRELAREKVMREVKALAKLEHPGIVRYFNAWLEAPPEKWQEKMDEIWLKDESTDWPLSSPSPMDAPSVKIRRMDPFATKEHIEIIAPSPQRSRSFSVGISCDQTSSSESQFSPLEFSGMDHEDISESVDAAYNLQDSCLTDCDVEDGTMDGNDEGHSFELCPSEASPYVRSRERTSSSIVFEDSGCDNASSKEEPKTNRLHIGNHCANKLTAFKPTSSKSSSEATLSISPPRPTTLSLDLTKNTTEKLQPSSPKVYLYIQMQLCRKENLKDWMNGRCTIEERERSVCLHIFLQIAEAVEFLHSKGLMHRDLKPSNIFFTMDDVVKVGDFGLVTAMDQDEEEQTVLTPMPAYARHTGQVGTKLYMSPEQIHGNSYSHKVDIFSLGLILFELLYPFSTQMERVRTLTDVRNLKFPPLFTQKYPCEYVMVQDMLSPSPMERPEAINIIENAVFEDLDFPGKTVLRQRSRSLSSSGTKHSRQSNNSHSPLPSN

[14] = target: Serine/threonine-protein kinase D1 (Homo sapiens) (UniProt Q15139); assay: Inhibition of PKD1 assessed as residual activity at 10 uM using [33P-ATP] by radiometric filter binding assay
[15] = target: Homeodomain-interacting protein kinase 2 (Homo sapiens) (UniProt Q9H2X6); assay: Inhibition of HIPK2 assessed as residual activity at 10 uM using [33P-ATP] by radiometric filter binding assay
[16] = target: Serine/threonine-protein kinase PAK 5 (Homo sapiens) (UniProt Q9P286); assay: Inhibition of PAK5 assessed as residual activity at 10 uM using [33P-ATP] by radiometric filter binding assay
[17] = target: Serine/threonine-protein kinase PAK 6 (Homo sapiens) (UniProt Q9NQU5); assay: Inhibition of PAK6 assessed as residual activity at 10 uM using [33P-ATP] by radiometric filter binding assay
Chain of Serine/threonine-protein kinase PAK 6 (Homo sapiens) (Q9NQU5 whole entry, looked up): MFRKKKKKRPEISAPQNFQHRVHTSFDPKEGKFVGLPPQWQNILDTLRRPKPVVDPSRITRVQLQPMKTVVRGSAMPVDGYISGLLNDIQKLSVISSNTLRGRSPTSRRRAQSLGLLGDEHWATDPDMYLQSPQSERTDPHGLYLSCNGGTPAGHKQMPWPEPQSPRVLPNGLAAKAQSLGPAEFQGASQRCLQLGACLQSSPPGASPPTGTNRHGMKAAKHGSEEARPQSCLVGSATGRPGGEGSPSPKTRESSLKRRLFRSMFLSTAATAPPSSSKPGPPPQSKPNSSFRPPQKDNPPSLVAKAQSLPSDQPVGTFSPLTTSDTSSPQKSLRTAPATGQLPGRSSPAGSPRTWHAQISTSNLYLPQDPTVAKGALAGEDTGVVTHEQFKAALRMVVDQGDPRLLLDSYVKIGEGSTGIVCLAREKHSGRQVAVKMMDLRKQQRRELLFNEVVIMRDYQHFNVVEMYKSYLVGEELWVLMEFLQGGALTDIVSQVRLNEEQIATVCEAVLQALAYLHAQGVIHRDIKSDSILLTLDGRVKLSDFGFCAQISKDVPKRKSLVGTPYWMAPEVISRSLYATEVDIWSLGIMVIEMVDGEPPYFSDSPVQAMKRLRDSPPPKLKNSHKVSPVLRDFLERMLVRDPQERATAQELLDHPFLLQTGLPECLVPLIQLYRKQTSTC

[18] = target: Homeodomain-interacting protein kinase 1 (Homo sapiens) (UniProt Q86Z02); assay: Inhibition of HIPK1 assessed as residual activity at 10 uM using [33P-ATP] by radiometric filter binding assay
[19] = Inhibition of PHK assessed as residual activity at 10 uM using [33P-ATP] by radiometric filter binding assay
[20] = target: Ephrin type-B receptor 1 (Homo sapiens) (UniProt P54762); assay: Inhibition of EPHB1 assessed as residual activity at 10 uM using [33P-ATP] by radiometric filter binding assay
[21] = target: Mitogen-activated protein kinase 15 (Homo sapiens) (UniProt Q8TD08); assay: Inhibition of ERK8 assessed as residual activity at 10 uM using [33P-ATP] by radiometric filter binding assay
[22] = target: Tyrosine-protein kinase ABL1 (Homo sapiens) (UniProt P00519); assay: Inhibition of ABL assessed as residual activity at 10 uM using [33P-ATP] by radiometric filter binding assay
[23] = target: Casein kinase I isoform alpha (Homo sapiens) (UniProt P48729); assay: Inhibition of CK1 assessed as residual activity at 10 uM using [33P-ATP] by radiometric filter binding assay
[24] = target: Serine/threonine-protein kinase Sgk1 (Homo sapiens) (UniProt O00141); assay: Inhibition of SGK1 assessed as residual activity at 10 uM using [33P-ATP] by radiometric filter binding assay
[25] = target: Glycogen synthase kinase-3 beta (Homo sapiens) (UniProt P49841); assay: Inhibition of GSK3b assessed as residual activity at 10 uM using [33P-ATP] by radiometric filter binding assay
[26] = target: Mitogen-activated protein kinase 13 (Homo sapiens) (UniProt O15264); assay: Inhibition of p38delta MAPK assessed as residual activity at 10 uM using [33P-ATP] by radiometric filter binding assay
[27] = target: Tyrosine-protein kinase ZAP-70 (Homo sapiens) (UniProt P43403); assay: Inhibition of ZAP70 assessed as residual activity at 10 uM using [33P-ATP] by radiometric filter binding assay
[28] = target: MAP kinase-interacting serine/threonine-protein kinase 2 (Homo sapiens) (UniProt Q9HBH9); assay: Inhibition of MNK2 assessed as residual activity at 10 uM using [33P-ATP] by radiometric filter binding assay
[29] = target: Tau-tubulin kinase 1 (Homo sapiens) (UniProt Q5TCY1); assay: Inhibition of TTBK1 assessed as residual activity at 10 uM using [33P-ATP] by radiometric filter binding assay
[30] = target: Homeodomain-interacting protein kinase 3 (Homo sapiens) (UniProt Q9H422); assay: Inhibition of HIPK3 assessed as residual activity at 10 uM using [33P-ATP] by radiometric filter binding assay
Chain of Homeodomain-interacting protein kinase 3 (Homo sapiens) (Q9H422 whole entry, looked up): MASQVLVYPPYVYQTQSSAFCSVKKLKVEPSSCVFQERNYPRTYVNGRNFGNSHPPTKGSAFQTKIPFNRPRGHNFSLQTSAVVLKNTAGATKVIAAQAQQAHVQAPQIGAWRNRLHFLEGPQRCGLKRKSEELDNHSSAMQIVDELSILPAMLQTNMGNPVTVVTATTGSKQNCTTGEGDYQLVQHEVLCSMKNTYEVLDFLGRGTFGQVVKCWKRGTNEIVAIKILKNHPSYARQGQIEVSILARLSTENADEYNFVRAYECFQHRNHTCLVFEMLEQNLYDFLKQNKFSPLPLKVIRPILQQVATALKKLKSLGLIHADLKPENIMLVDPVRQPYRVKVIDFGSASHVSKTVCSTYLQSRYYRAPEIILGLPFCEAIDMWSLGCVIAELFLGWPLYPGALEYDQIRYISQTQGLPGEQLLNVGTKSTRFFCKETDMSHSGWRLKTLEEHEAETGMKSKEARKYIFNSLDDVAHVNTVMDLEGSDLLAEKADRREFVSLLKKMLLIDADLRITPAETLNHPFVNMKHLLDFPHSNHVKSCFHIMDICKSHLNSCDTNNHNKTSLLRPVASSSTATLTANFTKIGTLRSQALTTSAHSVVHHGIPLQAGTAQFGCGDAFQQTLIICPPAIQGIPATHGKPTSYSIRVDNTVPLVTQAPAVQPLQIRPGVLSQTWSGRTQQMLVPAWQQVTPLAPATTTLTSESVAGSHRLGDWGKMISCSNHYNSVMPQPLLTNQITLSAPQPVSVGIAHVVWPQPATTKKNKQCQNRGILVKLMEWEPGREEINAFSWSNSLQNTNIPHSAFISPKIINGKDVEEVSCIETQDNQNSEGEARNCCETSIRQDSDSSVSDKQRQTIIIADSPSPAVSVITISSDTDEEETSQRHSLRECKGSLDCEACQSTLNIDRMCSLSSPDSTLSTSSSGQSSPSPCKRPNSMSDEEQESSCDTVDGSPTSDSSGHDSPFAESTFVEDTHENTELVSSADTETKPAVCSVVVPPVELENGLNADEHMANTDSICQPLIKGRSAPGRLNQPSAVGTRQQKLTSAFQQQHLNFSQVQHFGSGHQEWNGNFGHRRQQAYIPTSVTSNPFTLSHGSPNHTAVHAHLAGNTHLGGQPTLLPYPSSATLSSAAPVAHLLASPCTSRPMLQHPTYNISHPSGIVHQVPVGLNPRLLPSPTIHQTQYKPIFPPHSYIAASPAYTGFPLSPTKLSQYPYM

[31] = target: MAP/microtubule affinity-regulating kinase 3 (Homo sapiens) (UniProt P27448); assay: Inhibition of MARK3 assessed as residual activity at 10 uM using [33P-ATP] by radiometric filter binding assay
[32] = target: Serine/threonine-protein kinase PLK1 (Homo sapiens) (UniProt P53350); assay: Inhibition of PLK1 assessed as residual activity at 10 uM using [33P-ATP] by radiometric filter binding assay

Cc1ccc(F)cc1-c1nc2[nH]nc(N)c2c2c1CCCC2
Activity [1]: 78% | Activity [2]: 52% | Activity [3]: 4% | Activity [4]: 65% | Activity [5]: 37% | Activity [6]: 112% | Activity [7]: 115% | Activity [8]: 98% | Activity [9]: 75% | Activity [10]: 56% | Activity [11]: 55% | Activity [12]: 86% | Activity [13]: 82% | Activity [14]: 63% | Activity [15]: 98% | Activity [16]: 92% | Activity [17]: 103% | Activity [18]: 124% | Activity [19]: 86% | Activity [20]: 4% | Activity [21]: 46% | Activity [22]: 45% | Activity [23]: 96% | Activity [24]: 85% | Activity [25]: 73% | Activity [26]: 100% | Activity [27]: 107% | Activity [28]: 93% | Activity [29]: 94% | Activity [30]: 94% | Activity [31]: 81% | Activity [32]: 93%
